Earlier results on 2 compounds are cited in patent US20240027453A1, “METHOD FOR DETECTION AND QUANTITATIVE MONITORING OF INFECTIONS WITH HERPESVIRUSES” (The Trustees of Princeton University, priority 2020, published 2024).

What is called IC50 is the midpoint of a concentration-inhibition curve.

The subject of data set [1] is HCMV. Particulars: cited from earlier work.
Data set [2] concerns HCMV. Particulars: in MRC5 cells; cited from earlier work.

For `Nc1c(S(=O)(=O)c2ccccc2)c2nc3ccccc3nc2n1-c1ccc(F)cc1` [CAY10602], the “decrease in HCMV titers” value in the data set with HCMV [1] ([…] CAY10602, 50 μM trans-Resveratrol) was roughly 50%. The HCMV titers entry with HCMV [1] is “decreased”.
In the case of `Nc1ccn(C[C@@H](CO)OCP(=O)(O)O)c(=O)n1` [CDV, cidofovir], in the data set on HCMV [2], the IC50 is roughly 0.5 µM.
